Data on 5 molecules can be found in patent US4692463A, “Antiinflammatory 2,3-didemethylcolchicine and additional derivatives” (The United States of America as represented by the …, priority 1985, dated 1987).

A value given as a limit tells only on which side of the number the result lay.

For one data set, the system named is tubulin protein. Format: binding. The note with it: in vitro.
The test system of data set [1] is swelling produced by injecting carrageenin into the footpad. Nature of the data set: animal or person. Format: in vivo, mice or rats. The note with it: for Reduction of Swelling 3 hrs / Reduction of Swelling 5 hrs: dose 2 mg/kg i.p.; for Reduction of Swelling 3 hrs: 3 hours after; for Reduction of Swelling 5 hrs: 5 hours after; for minimal effective dose: Mus musculus, ip, classical drugs, carrageenin swelling screen, read-out: Dose level at which active (antiinflammatory).
From the text: The antiinflammatory properties of colchinoids can be evaluated in a classical screening that measures the reduction of swelling produced by injecting (i.p.) carrageenin into the footpad of mice or rats and drug treatment. The drugs can be given orally or intraperitoneally.
Drug given in carrageenine or thyrode solution by i.p.

Data set [2] in a line: Toxicity measured in the P388 screen (weight loss in mice). Format: in vivo. The note with it: for Toxicity: dose which caused average weight loss in mice of 3 g or more: P388 screen. An excerpt: ^1 Measured in the P388 screen and defined as dose which caused
average weight loss in mice of 3 g or more.

`COc1c(O)c(O)cc2c1-c1ccc(OC)c(=O)cc1[C@@H](NC(C)=O)CC2` [2,3-Didemethylcolchicine]: the “Binding to tubulin protein in comparison to colchicine (in words)” value in the data set on tubulin protein was “bind less”. Also, in data set [1], the “Reduction of Swelling 3 hrs” value is listed as 70 and the “Reduction of Swelling 5 hrs” value worked out at 60. For the same molecule, the “Toxicity: dose which caused average weight loss in mice of 3 g or more” value in data set [2] came to 54. For the same molecule, the “Toxicity in comparison to colchicine (in words)” value in data set [2] (experimental animals) is given as “much less toxic”.

For the molecule `COc1cc2c(c(OC)c1OC)-c1ccc(OC)c(=O)cc1[C@@H](NC(C)=O)CC2` [Colchicine], in data set [1], the “Reduction of Swelling 3 hrs” value is 44 and the “Reduction of Swelling 5 hrs” value is reported as 45. Moreover, the “Toxicity: dose which caused average weight loss in mice of 3 g or more” value in data set [2] worked out at 2.5.

`COc1c2c(cc3c1-c1ccc(OC)c(=O)cc1[C@@H](NC(C)=O)CC3)OCO2` [Cornigerine, 2,3-(Methylenedioxy)-2,3-didemethoxycolchicine]: in data set [1], the “Reduction of Swelling 3 hrs” value amounted to 44 and the “Reduction of Swelling 5 hrs” value stood at 47. Besides, the “Toxicity: dose which caused average weight loss in mice of 3 g or more” value in data set [2] is on record as 39.

With `COc1ccc2c(c1)c(CC(=O)O)c(C)n2C(=O)c1ccc(Cl)cc1` [indomethacine, reference compound], the minimal effective dose in data set [1] was not below 100 mg/kg.

In the case of `CCCCC1C(=O)N(c2ccccc2)N(c2ccccc2)C1=O` [phenybutazone, reference compound], the minimal effective dose in data set [1] is not below 100 mg/kg.
